These results are taken from patent US10670605B2, “Cysteine reactive probes and uses thereof” (The Scripps Research Institute, priority 2015, dated 2020).

Common to all, as to test: Competitive isoTOP-ABPP in situ (fragment-treated cells)
Common to all, as to format: cell-based

The target of assay [1] is cysteines in MDA-MB-231 and Ramos cells (Homo sapiens, UniProt P15121). The conditions noted are these: 200 μM, insitu.
The target of assay [2] is cysteines in MDA-MB-231 and Ramos cells (Homo sapiens, UniProt P83731). To be noted: 200 μM, insitu, 231.
Assay [3] concerns the target cysteines in MDA-MB-231 and Ramos cells (Homo sapiens, UniProt Q02252). The conditions noted are these: 200 μM, insitu, 231.
The target of assay [4] is cysteines in MDA-MB-231 and Ramos cells (Homo sapiens, UniProt Q7Z2W4). The conditions noted are these: 200 μM, insitu, 231.
Sequence of cysteines in MDA-MB-231 and Ramos cells (Homo sapiens, UniProt Q7Z2W4) (Q7Z2W4 whole entry): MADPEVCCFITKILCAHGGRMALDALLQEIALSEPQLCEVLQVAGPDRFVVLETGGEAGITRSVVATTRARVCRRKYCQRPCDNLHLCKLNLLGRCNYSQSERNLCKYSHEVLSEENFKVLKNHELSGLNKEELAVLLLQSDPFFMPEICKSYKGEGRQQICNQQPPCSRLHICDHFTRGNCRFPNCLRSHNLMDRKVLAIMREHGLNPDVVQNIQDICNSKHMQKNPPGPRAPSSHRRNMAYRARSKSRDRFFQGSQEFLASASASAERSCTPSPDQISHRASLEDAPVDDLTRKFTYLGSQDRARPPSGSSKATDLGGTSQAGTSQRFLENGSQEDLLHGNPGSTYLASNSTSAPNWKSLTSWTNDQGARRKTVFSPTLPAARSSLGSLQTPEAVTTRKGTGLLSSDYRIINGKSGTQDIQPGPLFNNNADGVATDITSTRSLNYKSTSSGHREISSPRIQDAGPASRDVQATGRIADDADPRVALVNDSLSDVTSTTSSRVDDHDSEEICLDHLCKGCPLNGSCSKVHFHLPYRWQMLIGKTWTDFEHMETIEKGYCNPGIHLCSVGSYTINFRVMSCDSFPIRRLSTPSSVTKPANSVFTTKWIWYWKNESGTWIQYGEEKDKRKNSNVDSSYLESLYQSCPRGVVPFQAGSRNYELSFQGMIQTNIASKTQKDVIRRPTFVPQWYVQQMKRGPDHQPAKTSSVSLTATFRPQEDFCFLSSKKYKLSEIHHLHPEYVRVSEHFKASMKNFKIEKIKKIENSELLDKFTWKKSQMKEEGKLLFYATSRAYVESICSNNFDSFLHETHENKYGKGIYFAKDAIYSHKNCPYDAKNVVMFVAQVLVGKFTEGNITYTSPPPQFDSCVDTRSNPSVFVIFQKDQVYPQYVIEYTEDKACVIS
Assay [5] concerns the target T1, cysteines in MDA-MB-231 and Ramos cells (Homo sapiens, UniProt Q9BQ69).
T1 sequence (Q9BQ69 1-325): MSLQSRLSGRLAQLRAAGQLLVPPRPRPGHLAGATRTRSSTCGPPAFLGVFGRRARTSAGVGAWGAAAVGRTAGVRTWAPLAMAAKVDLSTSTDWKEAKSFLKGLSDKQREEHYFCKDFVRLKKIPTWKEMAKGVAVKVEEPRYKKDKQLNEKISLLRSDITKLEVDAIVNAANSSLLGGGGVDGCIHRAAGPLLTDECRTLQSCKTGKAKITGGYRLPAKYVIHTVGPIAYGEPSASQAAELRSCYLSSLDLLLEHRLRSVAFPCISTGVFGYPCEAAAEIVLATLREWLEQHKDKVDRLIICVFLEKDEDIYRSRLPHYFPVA
To be noted: 200 μM, insitu, 231.

In assay [6] the target is T2, cysteines in MDA-MB-231 and Ramos cells (Homo sapiens, UniProt Q9NVC6).
T2 sequence (Q9NVC6 1-651): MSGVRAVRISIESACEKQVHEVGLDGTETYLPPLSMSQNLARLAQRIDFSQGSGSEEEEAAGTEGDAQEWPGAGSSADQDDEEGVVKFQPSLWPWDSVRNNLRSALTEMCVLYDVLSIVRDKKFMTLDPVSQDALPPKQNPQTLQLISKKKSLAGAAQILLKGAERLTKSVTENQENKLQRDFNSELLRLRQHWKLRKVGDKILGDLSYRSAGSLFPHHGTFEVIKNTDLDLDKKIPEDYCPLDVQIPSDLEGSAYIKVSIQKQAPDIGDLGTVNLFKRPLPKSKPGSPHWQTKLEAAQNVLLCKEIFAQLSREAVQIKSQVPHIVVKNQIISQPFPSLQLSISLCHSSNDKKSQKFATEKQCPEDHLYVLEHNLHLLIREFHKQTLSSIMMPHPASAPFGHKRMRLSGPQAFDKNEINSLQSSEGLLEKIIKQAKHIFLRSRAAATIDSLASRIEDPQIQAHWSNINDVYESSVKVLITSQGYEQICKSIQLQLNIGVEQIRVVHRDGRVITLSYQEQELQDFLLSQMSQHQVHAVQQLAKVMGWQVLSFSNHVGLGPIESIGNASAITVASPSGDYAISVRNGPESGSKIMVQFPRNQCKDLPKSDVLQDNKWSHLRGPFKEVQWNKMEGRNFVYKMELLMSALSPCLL
To be noted: 200 μM, insitu, 231.

Assay [7] has as its target cysteines in MDA-MB-231 and Ramos cells (Homo sapiens, UniProt Q9NYL2). The conditions noted are these: 200 μM, insitu, 231.
For assay [8], the target named is T3, cysteines in MDA-MB-231 and Ramos cells (Homo sapiens, UniProt Q9UKF6).
T3 sequence (Q9UKF6 1-684): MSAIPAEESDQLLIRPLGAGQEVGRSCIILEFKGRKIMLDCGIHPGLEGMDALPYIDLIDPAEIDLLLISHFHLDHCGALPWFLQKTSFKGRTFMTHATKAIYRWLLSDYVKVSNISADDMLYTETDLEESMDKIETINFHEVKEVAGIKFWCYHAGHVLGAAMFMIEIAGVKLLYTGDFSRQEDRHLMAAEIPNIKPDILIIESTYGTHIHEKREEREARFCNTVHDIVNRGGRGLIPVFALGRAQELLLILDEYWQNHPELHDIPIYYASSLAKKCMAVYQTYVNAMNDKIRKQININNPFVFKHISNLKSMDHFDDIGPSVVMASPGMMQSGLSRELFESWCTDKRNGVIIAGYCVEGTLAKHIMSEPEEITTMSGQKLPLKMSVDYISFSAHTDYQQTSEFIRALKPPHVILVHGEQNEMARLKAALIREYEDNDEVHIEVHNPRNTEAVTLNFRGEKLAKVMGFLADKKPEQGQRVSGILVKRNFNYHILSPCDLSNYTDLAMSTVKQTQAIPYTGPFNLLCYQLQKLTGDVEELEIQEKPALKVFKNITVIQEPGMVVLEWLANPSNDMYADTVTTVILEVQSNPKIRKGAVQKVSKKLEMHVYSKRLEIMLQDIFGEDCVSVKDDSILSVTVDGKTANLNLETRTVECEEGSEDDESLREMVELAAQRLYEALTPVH
The conditions noted are these: 200 μM, insitu, 231.

Assay [9] addresses T4, cysteines in MDA-MB-231 and Ramos cells (Homo sapiens, UniProt P57764).
T4 sequence (P57764 1-484): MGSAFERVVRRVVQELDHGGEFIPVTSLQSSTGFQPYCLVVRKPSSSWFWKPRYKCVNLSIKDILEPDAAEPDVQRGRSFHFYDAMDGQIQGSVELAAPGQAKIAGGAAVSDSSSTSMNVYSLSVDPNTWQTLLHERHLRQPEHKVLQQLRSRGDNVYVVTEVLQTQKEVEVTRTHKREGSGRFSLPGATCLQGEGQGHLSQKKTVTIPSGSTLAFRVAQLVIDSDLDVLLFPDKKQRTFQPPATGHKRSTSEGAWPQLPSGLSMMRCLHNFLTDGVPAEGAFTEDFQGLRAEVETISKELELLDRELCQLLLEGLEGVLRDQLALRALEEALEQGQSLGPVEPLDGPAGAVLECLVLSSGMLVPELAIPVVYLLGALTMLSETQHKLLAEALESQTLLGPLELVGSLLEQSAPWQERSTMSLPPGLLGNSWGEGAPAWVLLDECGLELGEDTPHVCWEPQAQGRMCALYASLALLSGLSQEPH
To be noted: 200 μM, insitu.

Sequence of cysteines in MDA-MB-231 and Ramos cells (Homo sapiens, UniProt Q02252) (Q02252 34-535): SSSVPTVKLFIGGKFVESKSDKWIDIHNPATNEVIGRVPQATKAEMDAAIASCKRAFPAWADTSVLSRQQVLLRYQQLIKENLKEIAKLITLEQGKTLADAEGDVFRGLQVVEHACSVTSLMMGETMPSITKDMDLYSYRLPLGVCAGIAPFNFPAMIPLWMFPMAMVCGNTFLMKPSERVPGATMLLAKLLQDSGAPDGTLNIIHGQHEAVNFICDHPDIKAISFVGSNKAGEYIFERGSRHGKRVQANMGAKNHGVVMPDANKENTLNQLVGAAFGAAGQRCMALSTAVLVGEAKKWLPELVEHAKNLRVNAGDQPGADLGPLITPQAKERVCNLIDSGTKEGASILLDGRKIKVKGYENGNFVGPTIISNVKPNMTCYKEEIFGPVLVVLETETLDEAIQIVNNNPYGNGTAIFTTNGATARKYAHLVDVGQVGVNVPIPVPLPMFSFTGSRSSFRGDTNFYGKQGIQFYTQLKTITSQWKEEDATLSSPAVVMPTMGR
Sequence of cysteines in MDA-MB-231 and Ramos cells (Homo sapiens, UniProt Q9NYL2) (Q9NYL2 whole entry): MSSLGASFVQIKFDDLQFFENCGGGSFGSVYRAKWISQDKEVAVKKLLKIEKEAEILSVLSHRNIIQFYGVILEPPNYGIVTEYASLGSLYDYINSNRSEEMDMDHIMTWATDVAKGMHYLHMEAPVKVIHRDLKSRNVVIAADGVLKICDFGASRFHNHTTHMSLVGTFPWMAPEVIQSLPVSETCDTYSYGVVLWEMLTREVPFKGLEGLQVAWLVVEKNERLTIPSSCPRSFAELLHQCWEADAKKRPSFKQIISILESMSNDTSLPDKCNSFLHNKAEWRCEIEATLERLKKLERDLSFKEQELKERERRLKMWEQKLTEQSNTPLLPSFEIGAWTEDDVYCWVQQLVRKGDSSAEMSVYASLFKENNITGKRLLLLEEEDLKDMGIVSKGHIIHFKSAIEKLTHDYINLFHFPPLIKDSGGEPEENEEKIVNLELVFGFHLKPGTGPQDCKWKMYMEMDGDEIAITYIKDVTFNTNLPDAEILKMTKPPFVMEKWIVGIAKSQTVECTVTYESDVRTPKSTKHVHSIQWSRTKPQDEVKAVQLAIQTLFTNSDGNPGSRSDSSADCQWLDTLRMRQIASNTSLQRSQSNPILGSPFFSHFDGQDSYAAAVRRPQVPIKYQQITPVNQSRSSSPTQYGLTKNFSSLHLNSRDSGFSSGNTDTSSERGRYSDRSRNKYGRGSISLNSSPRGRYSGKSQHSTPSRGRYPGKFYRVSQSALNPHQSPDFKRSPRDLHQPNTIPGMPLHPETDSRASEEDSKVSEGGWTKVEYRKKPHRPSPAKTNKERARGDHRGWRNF

For the compound `O=C(CCl)NC(=O)NC12CC3CC(CC(C3)C1)C2` [compound 12], the “isoTOP-ABPP ratio P15121_C299” value in assay [1] (231) is given as 0.7. Also, the “isoTOP-ABPP ratio P83731_C6” value in assay [2] is given as 0.3. Further, the “isoTOP-ABPP ratio Q02252_C317” value in assay [3] turned out to be 3.2. Also, the “isoTOP-ABPP ratio Q7Z2W4_C645” value in assay [4] is recorded as 3.3. In assay [5], the “isoTOP-ABPP ratio Q9BQ69_C186” value was determined as 2.7. Further, the “isoTOP-ABPP ratio Q9NVC6_C649” value in assay [6] stood at 4.0. Moreover, in assay [7], the “isoTOP-ABPP ratio Q9NYL2_C22” value was 0.7. In addition, the “isoTOP-ABPP ratio Q9UKF6_C498” value in [8] came out at 4.1.
As to `O=C(CCl)NC12CC3CC(CC(C3)C1)C2` [compound 21], the “isoTOP-ABPP ratio P15121_C299” value in assay [1] (231) is on record as 2.7. Besides, the “isoTOP-ABPP ratio P57764_C268” value in assay [9] (231) stood at 0.7. Further, in assay [2], the “isoTOP-ABPP ratio P83731_C6” value is given as 1.0. For the same compound, the “isoTOP-ABPP ratio Q02252_C317” value in assay [3] came out at 1.5. The “isoTOP-ABPP ratio Q7Z2W4_C645” value in [4] worked out at 0.9. In addition, in [5], the “isoTOP-ABPP ratio Q9BQ69_C186” value is on record as 1.4. The “isoTOP-ABPP ratio Q9NVC6_C649” value in assay [6] is recorded as 0.8. Further, the “isoTOP-ABPP ratio Q9UKF6_C498” value in assay [8] was 1.4.
With `COc1ccccc1OCCNC(=O)CCl` [compound 28], the “isoTOP-ABPP ratio P15121_C299” value in [1] (231) stood at 0.8. The “isoTOP-ABPP ratio Q02252_C317” value in assay [3] is 1.1. For the same compound, the “isoTOP-ABPP ratio Q9NVC6_C649” value in assay [6] stood at 1.1.
As for `C=CC(=O)N(Cc1cccnc1)c1cc(C(F)(F)F)cc(C(F)(F)F)c1` [compound 31], the “isoTOP-ABPP ratio P15121_C299” value in assay [1] (231) was found to be 0.8; in assay [1] (ramos), 1.3. Besides, in [9] (ramos), the “isoTOP-ABPP ratio P57764_C268” value is 3.1. Also, the “isoTOP-ABPP ratio Q9BQ69_C186” value in assay [5] came to 0.5. Besides, in assay [6], the “isoTOP-ABPP ratio Q9NVC6_C649” value was 0.8.
For `C=CC(=O)Nc1cc(F)c(N2CCN(C(=O)OC(C)(C)C)CC2)c(F)c1` [compound 38], in [1] (231), the “isoTOP-ABPP ratio P15121_C299” value turned out to be 1.0. For the same compound, the “isoTOP-ABPP ratio P57764_C268” value in assay [9] (231) turned out to be 1.8. For the same compound, the “isoTOP-ABPP ratio P83731_C6” value in assay [2] worked out at 2.1. Further, the “isoTOP-ABPP ratio Q02252_C317” value in assay [3] is given as 2.4. Also, the “isoTOP-ABPP ratio Q7Z2W4_C645” value in assay [4] is recorded as 0.9. In assay [5], the “isoTOP-ABPP ratio Q9BQ69_C186” value is reported as 3.6. The “isoTOP-ABPP ratio Q9NVC6_C649” value in assay [6] is listed as 1.2.
Turning to `O=C(CCl)Nc1cccc2ncccc12` [compound 51], the “isoTOP-ABPP ratio P15121_C299” value in [1] (231) was determined as 0.9. Moreover, in assay [9] (231), the “isoTOP-ABPP ratio P57764_C268” value was 1.8. Also, the “isoTOP-ABPP ratio Q7Z2W4_C645” value in assay [4] turned out to be 1.6. In assay [5], the “isoTOP-ABPP ratio Q9BQ69_C186” value is given as 1.2.
